Measurements taken from patent US8618082B2, “Lupeol anti-tumor agent and uses thereof” (Wisconsin Alumni Research Foundation, priority 2004, dated 2013).
“Also recorded” adds a separate entry of the source.

Assays:
[1] = test system: Fas receptor, FADD and other death receptors in LNCaP cells; assay: Death receptor mediated apoptotic pathway in LNCaP cells (western blot); assay type: cell-based, human
Protocol: FIG. 14 depicts effect of Lupeol treatment on death receptor mediated apoptotic pathway in LNCaP cells: Cells were treated with vehicle (DMSO+alcohol) only or specified concentrations of Lupeol for 48 h, harvested and total cell lysates were prepared. The expression of death receptors including Fas and death adaptor proteins including FADD were determined by western blot analysis. Equal loading was confirmed by stripping immunoblots and reprobing them for β-actin. The immunoblots shown here are representative of three independent experiments with similar results.

Akt = assay: TPA-induced phosphorylation of Akt at Thr308 (western blot); assay type: in vivo, mouse
Protocol: (§1) FIG. 5. Inhibitory effect of Lupeol on TPA-induced activation of PI3K and phosphorylation of Akt in CD-1 mice: At different times after treatment, the animals were sacrificed, epidermal protein lysate was prepared, and PI3K and phosphorylated (Thr^308) Akt and total Akt protein expression were determined. The immunoblots shown here are representative of three independent experiments with similar results. The values above each lane indicate relative density of the band normalized to β-actin.
The animals were shaved on the dorsal side of the skin, divided into four groups and treated topically on the shaved area with either 0.4 ml vehicle (acetone), or TPA (3.2 nmol/0.4 ml acetone/animal, v/v), or Lupeol (1 or 2 mg/0.2 ml acetone/animal, w/v) followed 30 min later with TPA (3.2 nmol/0.2 ml acetone/animal). Animals were sacrificed at different times point i.e. 6, 12, 24 and 48 h post TPA treatment. […]
(§2) Epidermis from the whole skin was separated as described earlier (Katiyar et al., 1999) and was homogenized in ice-cold lysis buffer [50 mM Tris-HCl, 150 mM NaCl, 1 mM EGTA, 1 mM EDTA, 20 mM NaF, 100 mM Na3VO4, 0.5% NP-40, 1% Triton X-100, 1 mM PMSF (pH 7.4)] with freshly added protease inhibitor cocktail, Protease Inhibitor Cocktail Set III (Calbiochem, La Jolla, Calif., USA). […] The protein content in the lysates was measured by DC BioRad assay (BioRad Laboratories, Hercules, Calif.) as per the manufacturer's protocol.
(§3) For western blot analysis, 40 μg of the protein was resolved over 8-12% polyacrylamide gels and transferred to a nitrocellulose membrane. […] This was followed by incubation with anti-mouse or anti-rabbit secondary antibody horse-radish peroxidase (Amersham Life Sciences, Inc., USA) for 1 h and then washed several times and detected by chemiluminescence ECL kit, (Amersham Life Sciences, Inc., USA) and autoradiography using XAR-5 film obtained from Eastman Kodak Co. (Rochester, N.Y., USA). […]

[2] = test system: p38, Erk1/2, p21, Cyclin D-2 in AsPC-1 cells; assay: MAP kinase phosphorylation and p21, Cyclin D-2 expression in AsPC-1 cells; assay type: cell-based
Description: FIG. 25 depicts effect of Lupeol treatment on the phosphorylation of p38 and Erk1/2 in MAP kinase signaling and p21 and Cyclin D-2 protein expression in AsPC-1 cells.

CWR22Rv1 cells = assay: CWR22Rv1 xenograft tumor growth in athymic nude mice; assay type: in vivo, mouse; details: Lupeol 1 mg/animal i.p. three times a week, vs control mice
Protocol: FIG. 18 depicts effect of lupeol treatment on the growth of tumors from CWR22Rv1 cells implanted in nude mice. The growth was measured in terms of average volume of tumors as a function of time. Data is represented as mean±SD. * indicates p<0.05 (B) Number of mice remaining with tumor volumes<1000 mm^3 after treatment with corn oil alone or Lupeol for indicated weeks. * indicates p<0.01
To determine, whether lupeol could reduce the tumorigenicity of prostate cancer cells in animal model, androgen-dependent prostate cancer cells CW22Rv1, were implanted in a Athymic nude mouse xenograft model. Mice were given i.p. injection of Lupeol (1 mg/animal) three times a week. Tumor growth was measured weekly in terms of volume of tumors as function of time.

[3] = test system: catalytic (p110) and regulatory (p85) subunit of PI3K; assay: TPA-induced epidermal PI3K expression (western blot); assay type: in vivo, mouse
Protocol: as §1
The animals were shaved on the dorsal side of the skin, divided into four groups and treated topically on the shaved area with either 0.4 ml vehicle (acetone), or TPA (3.2 nmol/0.4 ml acetone/animal, v/v), or Lupeol (1 or 2 mg/0.2 ml acetone/animal, w/v) followed 30 min later with TPA (3.2 nmol/0.2 ml acetone/animal). Animals were sacrificed at different times point i.e. 6, 12, 24 and 48 h post TPA treatment. The epidermis was separated from the whole skin and homogenized in 0.1 M Tris-HCl buffer (pH 7.2) using a Polytron tissue homogenizer (Brinkmann Instruments, Westbury, N.Y., USA) at 100,000×g supernatant, and microsomal fractions were prepared as described earlier (Katiyar and Mukhtar, 1997). The sample of 6 h treatment group was used to assess the ODC activity as this time point has previously been shown for optimal induction of the enzyme (Katiyar er al., 1996).
as §2, with “USA). The homogenate was then centrifuged at 14,000×g for 25 minutes at 4° C. and the supernatant (total cell lysate) was collected, aliquoted and stored at −80° C. For the preparation of nuclear lysate, 0.2 g of the epidermis was homogenized in 1 ml of ice-cold phosphate-buffered saline (pH 7.6) and centrifuged at 12,000×g for 5 min at 4° C.” for “USA).”
as §3

Structure (SMILES): C=C(C)[C@@H]1CC[C@]2(C)CC[C@]3(C)[C@H](CC[C@@H]4[C@@]5(C)CC[C@H](O)C(C)(C)[C@@H]5CC[C@]43C)[C@@H]12 [Lupeol, Lup-20(29)-en-3β-ol]
- expression of cell death-inducing receptor ligands FAS-L, APO-3L and TRAIL [1]: no significant change
- expression/activation of other death receptors (TRADD, TNFR-1, APO-3, DR-4/5) [1]: no change in the protein expression; also recorded: No other death receptor such as TNFR1, DR4/5 were activated
- expression of FADD protein ([1]; 48 h): increase in the expression of FADD protein; also recorded: induces the expression
- expression of FAS receptor protein ([1]; 48 h): significant increase; also recorded: induces the expression
- TPA-induced phosphorylation of Akt at Thr308 (Akt; pre-application of Lupeol prior to TPA): dose dependent inhibition
- total epidermal Akt content (Akt; vs vehicle treated control): no change was observed
- Cyclin-D2 protein expression [2]: decrease in Cyclin-D2 protein expression
- expression of p-21 [2]: increase in the expression of p-21
- phosphorylation of Erk 1/2 [2]: increase in the phosphorylation of Erk 1/2
- phosphorylation of p38 [2]: significant reduction
- tumor growth (tumor volume as function of time) (CWR22Rv1 cells): significant reduction in tumor growth; also recorded: significantly Lower than control mice
- expression of p110 and p85 ([3]; 2 mg Lupeol prior to TPA): recovery of the expression of both p110 and p85 almost to their basal levels
- TPA-induced increased expression of catalytic and regulatory subunits of PI3K ([3]; topical Lupeol 30 min prior to TPA): significant inhibition
